Data: patent publication US11466019B2, “Triazolo[4,5-d] pyramidine derivatives and their use as purine receptor antagonists” (Vernalis (R&D) Limited, priority 2008, dated 2022)

Experiments:
[1] = biological target: T1, human adenosine A1 receptors (Homo sapiens, UniProt P30542); assay: Adenosine receptor binding: binding affinities at hA1 receptors ([3H]DPCPX displacement); conditions: Table 1; for Ki: [3H]DPCPX displacement, CHO-K1 membranes, read-out: Binding Affinity hA1-Ki; for Binding Selectivity A1/A2a: ratio of Ki values
T1 construct: expressed in transfected cells; host or cells: CHO-K1
T1 sequence (P30542 1-326): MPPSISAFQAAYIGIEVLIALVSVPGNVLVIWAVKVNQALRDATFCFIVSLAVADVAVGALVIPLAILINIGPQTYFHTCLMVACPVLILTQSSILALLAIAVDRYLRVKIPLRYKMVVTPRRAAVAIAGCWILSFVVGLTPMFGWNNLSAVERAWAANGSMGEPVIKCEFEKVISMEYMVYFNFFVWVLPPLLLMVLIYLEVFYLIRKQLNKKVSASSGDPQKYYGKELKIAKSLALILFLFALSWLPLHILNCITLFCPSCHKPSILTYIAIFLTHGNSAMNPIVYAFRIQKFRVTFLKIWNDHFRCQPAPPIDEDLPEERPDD
Protocol: Adenosine Receptor Binding: Binding Affinities at hA1 Receptors
The resultant homogenate was kept for immediate use in the binding.
(§1) Binding assays were performed in a total volume of 250 μL, containing [^3H]-DPCPX (3.0 nM), membranes and additional drugs. Total binding was determined using drug dilution buffer (50 mM Tris-HCl pH:7.5, 10 mM MgCl2, 5% DMSO). Non-specific binding was determined using 300 μM N6-cyclohexyladenosine (CHA). […] Filters were left to dry overnight, and Microscint-0 scintillation fluid was then added to the filters. The filters were then left for at least 2 hours before the radioactivity was assessed using a Canberra Packard TopCount microplate scintillation counter.
To determine the free ligand concentration, three vials were counted with 25 μL of [^3H]DPCPX containing 4 mL of Ultima-Gold MV scintillant on a Beckman LS6500 multi-purpose scintillation counter.
(§2) Data was analysed using a 4 parameter logistical equation and non-linear regression which yields affinity constants (pIC50), and slope parameters:
(§3) [formula] where E is the quantity of binding and [A] is the competitor concentration. The Ki is then determined using the Cheng-Prusoff equation: […]

[2] = biological target: T2, human adenosine A3 receptors (Homo sapiens, UniProt P0DMS8); assay: Adenosine receptor binding: binding affinities at hA3 receptors ([125I]-AB MECA displacement); conditions: Table 1; for Ki: [125I]-AB MECA displacement, CHO-K1 membranes, read-out: Binding Affinity hA3-Ki; for Binding Selectivity A3/A2a: ratio of Ki values
T2 construct: expressed in transfected cells; host or cells: CHO-K1
T2 sequence (P0DMS8 1-318): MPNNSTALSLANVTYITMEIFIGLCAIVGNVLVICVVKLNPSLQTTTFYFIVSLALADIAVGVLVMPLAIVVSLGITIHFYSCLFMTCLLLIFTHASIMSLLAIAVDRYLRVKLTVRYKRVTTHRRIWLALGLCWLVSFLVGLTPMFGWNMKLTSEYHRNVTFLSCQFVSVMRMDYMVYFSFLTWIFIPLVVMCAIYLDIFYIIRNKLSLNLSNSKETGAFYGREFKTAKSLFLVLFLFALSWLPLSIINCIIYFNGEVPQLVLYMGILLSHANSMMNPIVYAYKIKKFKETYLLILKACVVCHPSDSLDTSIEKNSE
Protocol: [formula] Adenosine Receptor Binding: Binding Affinities at hA3 Receptors
The resultant homogenate was kept for immediate use in the binding assay.
as §1, with “Total” for “Binding assays were performed in a total volume of 250 μL, containing [^3H]-DPCPX (3.0 nM), membranes and additional drugs. Total”, “pH 7.5,” for “pH:7.5,”, “10” for “300”, “IB-MECA.” for “N6-cyclohexyladenosine (CHA).”
as §2, §3

[3] = biological target: T3, human adenosine A2A receptors (Homo sapiens, UniProt P29274); assay: Adenosine receptor binding: binding affinities at hA2A receptors ([3H]CGS-21680 displacement); conditions: Table 1; [3H]CGS-21680 displacement, HEK-293 membranes; read-out: Binding Affinity hA2A-Ki
T3 construct: host or cells: HEK-293
Protocol: Adenosine Receptor Binding: Binding Affinities at hA2A Receptors
as §1, with “The resultant homogenate was kept for immediate use in the binding assay. Binding” for “Binding”, “[^3H]-CGS21680 (20.0” for “[^3H]-DPCPX (3.0”, “pH 7.5,” for “pH:7.5,”, “CHA.” for “N6-cyclohexyladenosine (CHA).”
To determine the free ligand concentration, three vials were counted with 25 μL of [^3H]CGS21680 containing 4 mL of Ultima-Gold MV scintillant on a Beckman LS6500 multi-purpose scintillation counter.
as §2, §3

[4] = biological target: T4, hA2B receptors (Homo sapiens, UniProt P29275); assay: Adenosine receptor binding: binding affinities at hA2B receptors ([3H]-ZM241385 displacement); conditions: Table 1; for Ki: [3H]-ZM241385 displacement, HEK-293 membranes, read-out: Binding Affinity hA2B-Ki; for Binding Selectivity A2b/A2a: ratio of Ki values
T4 construct: host or cells: HEK-293
T4 sequence (P29275 1-332): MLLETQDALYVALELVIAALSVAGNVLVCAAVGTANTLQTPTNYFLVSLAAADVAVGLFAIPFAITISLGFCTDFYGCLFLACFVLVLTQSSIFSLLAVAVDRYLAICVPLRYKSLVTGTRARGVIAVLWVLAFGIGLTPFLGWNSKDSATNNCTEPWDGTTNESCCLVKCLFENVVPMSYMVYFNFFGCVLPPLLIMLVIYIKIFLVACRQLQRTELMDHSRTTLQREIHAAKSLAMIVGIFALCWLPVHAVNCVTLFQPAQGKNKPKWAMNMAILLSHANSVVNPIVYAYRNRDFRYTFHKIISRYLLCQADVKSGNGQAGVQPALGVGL

[5] = tested on: haloperidol-induced deficits in locomotor activity in mice; assay: Haloperidol-induced hypolocomotion model (HaloLMA); type: in vivo; conditions: female TO mice, intraperitoneal, haloperidol 0.2 mg/kg
Text: Evaluation of Potential Anti-Parkinsonian Activity In Vivo: Haloperidol-Induced Hypolocomotion Model
This approach is also considered a valid method for screening drugs with potential antiparkinsonian effects. Thus, the ability of novel adenosine antagonists to block haloperidol-induced deficits in locomotor activity in mice can be used to assess both in vivo and potential antiparkinsonian efficacy.
Female TO mice (25-30 g) are used for all experiments. Animals are housed in groups of 8 (cage size-40 cm (width) by 40 cm (length) by 20 cm (height)) under 12 hour light/dark cycle (lights on 08:00), in a temperature (20±2° C.) and humidity (55±15%) controlled environment. Animals have free access to food and water, and are allowed at least 7 days to acclimatize after delivery before experimental use.
Liquid injectable haloperidol (e.g., 1 mL Serenance ampoules from Baker Norton, Harlow, Essex, each containing haloperidol BP 5 mg) are diluted to a final concentration of 0.02 mg/mL using saline. Test compounds are typically prepared as aqueous suspensions in 8% Tween. All compounds are administered intraperitoneally in a volume of 10 mL/kg.
1.5 hours before testing, mice are administered 0.2 mg/kg haloperidol, a dose that reduces baseline locomotor activity by at least 50%. Test substances are typically administered 5-60 minutes prior to testing. The animals are then placed individually into clean, clear polycarbonate cages (20 cm (width) by 40 cm (length) by 20 cm (height), with a flat perforated, Perspex lid). Horizontal locomotor activity is determined by placing the cages within a frame containing a 3 by 6 array of photocells linked to a computer, which tabulates beam breaks. Mice are left undisturbed to explore for 1 hour, and the number of beams breaks made during this period serves as a record of locomotor activity which is compared with data for control animals for statistically significant differences.
A number of the exemplified compounds of the present invention were tested in this assay and the results obtained are shown in Table 3, below.

T3 sequence (P29274 whole entry): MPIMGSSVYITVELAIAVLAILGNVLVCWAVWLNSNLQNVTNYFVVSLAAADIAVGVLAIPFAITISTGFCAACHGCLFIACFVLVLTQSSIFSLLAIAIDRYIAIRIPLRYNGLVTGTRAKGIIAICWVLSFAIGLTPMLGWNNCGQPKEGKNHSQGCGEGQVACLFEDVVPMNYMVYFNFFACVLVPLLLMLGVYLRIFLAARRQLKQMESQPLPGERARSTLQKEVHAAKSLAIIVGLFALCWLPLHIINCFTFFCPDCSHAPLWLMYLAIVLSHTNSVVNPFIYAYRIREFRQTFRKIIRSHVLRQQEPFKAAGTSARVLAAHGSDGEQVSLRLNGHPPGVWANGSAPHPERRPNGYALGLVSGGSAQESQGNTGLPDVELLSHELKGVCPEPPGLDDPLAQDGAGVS

Row | Structure (SMILES) | Ki [1] [µM] | Binding Selectivity A1/A2a [1] | Ki [2] [µM] | Binding Selectivity A3/A2a [2] | Ki [3] [µM] | Ki [4] [µM] | Binding Selectivity A2b/A2a [4] | melting point [°C] | In Vivo activity HaloLMA MED [5] [mg/kg]
1 | Cc1ccc(-c2nc(N)nc3c2nnn3Cc2cccc(COCC3CCCO3)n2)o1 (centres unmarked) [Example 33, 745-methylfuran-2-yl-3-(6-[tetrahydrofuran-2-ylmethyl]oxymethylpyrid-2-ylmethyl)-3H-[1,2,3]triazolo[4,5-d]pyrimidin-5-amine] | 0.299 | 42 | 2.18 | 303 | 0.0072 | 1.98 | 274 | 154.2 to 154.5 | 3
2 | Cc1ccc(-c2nc(N)nc3c2nnn3Cc2cccc(COCC3CCOC3)n2)o1 (racemic) [Example 34, 7-(5-methylfuran-2-yl)-3-(6-[tetrahydrofuran-3-ylmethyl]oxymethylpyrid-2-ylmethyl)-3H-[1,2,3]triazolo[4,5-d]pyrimidin-5-amine] | 0.164 | 40 | 2.12 | 513 | 0.0041 | 1.89 | 457 | 168.7 to 168.9 | 1
3 | Cc1ccc(-c2nc(N)nc3c2nnn3Cc2cccc(COC(F)F)n2)o1 [Example 31, 7-(5-methylfuran-2-yl)-3-(6-[difluoromethyloxymethyl]-pyrid-2-ylmethyl)-3H-[1,2,3]triazolo[4,5-d]pyrimidin-5-amine] |  |  |  |  |  |  |  | 194.8 to 195.1 | 1
4 | CC(C)(O)c1cccc(Cn2nnc3c(-c4cccc(C#N)c4)nc(N)nc32)n1 [Example 20, 7-(3-cyanophenyl)-3-(6-[1-hydroxy-1-methylethyl]pyrid-2-ylmethyl)-3H-[1,2,3]triazolo[4,5-d]pyrimidin-5-amine] | 0.731 | 54 |  | 634 | 0.0134 | 1.24 | 93 |  | 3
5 | CC(C)(O)c1cccc(Cn2nnc3c(-c4ccccc4)nc(N)nc32)n1 [Example 8, 7-phenyl-3-(6-[1-hydroxy-1-methylethyl]pyrid-2-ylmethyl)-3H-[1,2,3]triazolo[4,5-d]pyrimidin-5-amine] | 0.214 | 44 | 3.76 | 780 | 0.0048 | 1.3 | 269 |  | 3
6 | COCc1cccc(Cn2nnc3c(-c4ccccc4)nc(N)nc32)n1 [Example 12, 7-phenyl-3-(6-[methoxymethyl]pyrid-2-ylmethyl)-3H-[1,2,3]triazolo[4,5-d]pyrimidin-5-amine] | 0.27 | 96 | 8.17 | 2893 | 0.0028 | 1 | 354 |  | 10
7 | Cc1ccc(-c2nc(N)nc3c2nnn3Cc2cccc(C3(O)CCCCC3)n2)o1 [Example 4, 7-(5-methylfuran-2-yl)-3-(6-[1-hydroxy-1-cyclohexyl]pyrid-2-ylmethyl)-3H-[1,2,3]triazolo[4,5-d]pyrimidin-5-amine] | 0.196 | 63 | 1.64 | 528 | 0.0031 | 1.13 | 366 |  | 3
8 | COCc1cccc(Cn2nnc3c(-c4nc(C)cs4)nc(N)nc32)n1 [Example 30, 7-(4-methylthiazol-2-yl)-3-(6-[methoxymethyl]pyrid-2-ylmethyl)-3H-[1,2,3]triazolo[4,5-d]pyrimidin-5-amine] | 0.799 | 168 | 4.6 | 965 | 0.0048 | 2.37 | 498 |  | 3
9 | Cc1ccc(-c2nc(N)nc3c2nnn3Cc2cccc(C3(O)CCC3)n2)o1 [Example 6] | 0.354 | 313 | 1.5 | 1326 | 0.0011 | 1.37 | 1216 |  | 1
10 | Cc1ccc(-c2nc(N)nc3c2nnn3Cc2cccc(C3(O)CCOCC3)n2)o1 [Example 5, 7-(5-methylfuran-2-yl)-3-(6-[4-hydroxyetrahydropyran-4-yl]pyrid-2-ylmethyl)-3H-[1,2,3]triazolo[4,5-d]pyrimidin-5-amine] | 0.853 | 199 |  | 1989 | 0.0043 | 4.2 | 980 |  | 3
